Source: the supplement of paper PMC4862054

Key:
Conditions in all cases: incubation time: 72 h
HCC1599 [1] = assay: normalised response (% of control), CellTox Green; higher = less cell death (100 = DMSO, 0 = benzethonium chloride kill control)
How it was run: (§1)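 Compound was dispensed into 384-well plates at 5 concentrations in 10-fold steps spanning a 10,000-fold range specific to that compound. Breast cancer cell lines were added as 20 µl suspension and left for 72 h before CellTox Green fluorescence (485/520 nm) and then CellTiter-Glo luminescence, read after 10 min at room temperature. Each reported value is the normalised signal at one concentration, with 0.1 % DMSO set at 100 and a positive kill control at 0 on each plate.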

MDA-MB-453 [2] = assay: as above
How it was run: as §1

CAL-51 [3] = assay: as above
How it was run: as §1

HCC1143 [4] = assay: as above
How it was run: as §1

MDA-MB-436 [5] = assay: as above
How it was run: as §1

DU-4475 [6] = assay: as above
How it was run: as §1

CAL-85-1 [7] = assay: as above
How it was run: as §1

BT-474 [8] = assay: as above
How it was run: as §1

MFM-223 [9] = assay: as above
How it was run: as §1

BT-549 [10] = assay: as above
How it was run: as §1

MDA-MB-231 [11] = assay: as above
How it was run: as §1

MDA-MB-468 [12] = assay: as above
How it was run: as §1

HCC1937 [13] = assay: as above
How it was run: as §1

CAL-120 [14] = assay: as above
How it was run: as §1

Hs578T [15] = assay: as above
How it was run: as §1

CAL-148 [16] = assay: as above
How it was run: as §1

HCC1599 [17] = assay: normalised response (% of control), CellTiter-Glo; higher = more viable cells (100 = DMSO, 0 = benzethonium chloride kill control)
Experimental: (§2)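 DSRT, 72 h incubation, CellTox Green / CellTiter-Glo readout. Signal is normalised to DMSO and benzethonium chloride controls. Value is the normalised response at the highest dose.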

MDA-MB-453 [18] = assay: as above
Experimental: as §2

CAL-51 [19] = assay: as above
Experimental: as §2

HCC1143 [20] = assay: as above
Experimental: as §2

MDA-MB-436 [21] = assay: as above
Experimental: as §2

DU-4475 [22] = assay: as above
Experimental: as §2

CAL-85-1 [23] = assay: as above
Experimental: as §2

HDQ-P1 [24] = assay: as above
Experimental: as §2

MCF-10A [25] = assay: as above
Experimental: as §2

SK-BR-3 [26] = assay: as above
Experimental: as §2

BT-474 [27] = assay: as above
Experimental: as §2

MFM-223 [28] = assay: as above
Experimental: as §2

BT-549 [29] = assay: as above
Experimental: as §2

MDA-MB-231 [30] = assay: as above
Experimental: as §2

MDA-MB-468 [31] = assay: as above
Experimental: as §2

HCC1937 [32] = assay: as above
Experimental: as §2

CAL-120 [33] = assay: as above
Experimental: as §2

Hs578T [34] = assay: as above
Experimental: as §2

CAL-148 [35] = assay: as above
Experimental: as §2

HCC1599 [36] = assay: normalised response (% of control), CellTiter-Glo; higher = more viable cells (100 = DMSO, 0 = benzethonium chloride kill control); remark: listed apart in the source
How it was run: as §1

MDA-MB-453 [37] = assay: as above; remark: listed apart in the source
How it was run: as §1

CAL-51 [38] = assay: as above; remark: listed apart in the source
How it was run: as §1

HCC1143 [39] = assay: as above; remark: listed apart in the source
How it was run: as §1

MDA-MB-436 [40] = assay: as above; remark: listed apart in the source
How it was run: as §1

DU-4475 [41] = assay: as above; remark: listed apart in the source
How it was run: as §1

CAL-85-1 [42] = assay: as above; remark: listed apart in the source
How it was run: as §1

HDQ-P1 [43] = assay: as above; remark: listed apart in the source
How it was run: as §1

MCF-10A [44] = assay: as above; remark: listed apart in the source
How it was run: as §1

SK-BR-3 [45] = assay: as above; remark: listed apart in the source
How it was run: as §1

BT-474 [46] = assay: as above; remark: listed apart in the source
How it was run: as §1

MFM-223 [47] = assay: as above; remark: listed apart in the source
How it was run: as §1

BT-549 [48] = assay: as above; remark: listed apart in the source
How it was run: as §1

MDA-MB-231 [49] = assay: as above; remark: listed apart in the source
How it was run: as §1

MDA-MB-468 [50] = assay: as above; remark: listed apart in the source
How it was run: as §1

HCC1937 [51] = assay: as above; remark: listed apart in the source
How it was run: as §1

CAL-120 [52] = assay: as above; remark: listed apart in the source
How it was run: as §1

Hs578T [53] = assay: as above; remark: listed apart in the source
How it was run: as §1

CAL-148 [54] = assay: as above; remark: listed apart in the source
How it was run: as §1

HDQ-P1 [55] = assay: normalised response (% of control), CellTox Green; higher = less cell death (100 = DMSO, 0 = benzethonium chloride kill control)
How it was run: as §1

MCF-10A [56] = assay: as above
How it was run: as §1

Cc1cc(C(C)Nc2ccccc2)c2nc(N3CCOCC3)cc(=O)n2c1 (stereo unspecified) [TGX-221] (10000 nM)
normalised response (HCC1599 [1]): 91%
normalised response (MDA-MB-453 [2]): 90.7%
normalised response (CAL-51 [3]): 93.5%
normalised response (HCC1143 [4]): 76.9%
normalised response (MDA-MB-436 [5]): 78.3%
normalised response (DU-4475 [6]): 94.7%
normalised response (CAL-85-1 [7]): 106%
normalised response (BT-474 [8]): 92.8%
normalised response (MFM-223 [9]): 94.5%
normalised response (BT-549 [10]): 84.2%
normalised response (MDA-MB-231 [11]): 69%
normalised response (MDA-MB-468 [12]): 152%
normalised response (HCC1937 [13]): 79.8%
normalised response (CAL-120 [14]): 96.3%
normalised response (Hs578T [15]): -33.5%
normalised response (CAL-148 [16]): 97.4%
normalised response (HCC1599 [17]): 99.2%
normalised response (MDA-MB-453 [18]): 76.1%
normalised response (CAL-51 [19]): 67.6%
normalised response (HCC1143 [20]): 86.8%
normalised response (MDA-MB-436 [21]): 70.9%
normalised response (DU-4475 [22]): 95.6%
normalised response (CAL-85-1 [23]): 98.2%
normalised response (HDQ-P1 [24]): 88.6%
normalised response (MCF-10A [25]): 82.5%
normalised response (SK-BR-3 [26]): 78%
normalised response (BT-474 [27]): 70.9%
normalised response (MFM-223 [28]): 88.7%
normalised response (BT-549 [29]): 78.7%
normalised response (MDA-MB-231 [30]): 72.5%
normalised response (MDA-MB-468 [31]): 58.1%
normalised response (HCC1937 [32]): 78.6%
normalised response (CAL-120 [33]): 88.5%
normalised response (Hs578T [34]): 79%
normalised response (CAL-148 [35]): 105%

COC(=O)C[C@](O)(CCCC(C)(C)O)C(=O)O[C@@H]1C(OC)=C[C@]23CCCN2CCc2cc4c(cc2[C@H]13)OCO4 [Omacetaxine] (100 nM)
normalised response (HCC1599 [36]): 24.4%
normalised response (MDA-MB-453 [37]): 56.4%
normalised response (CAL-51 [38]): 19.9%
normalised response (HCC1143 [39]): 44.4%
normalised response (MDA-MB-436 [40]): 20%
normalised response (DU-4475 [41]): 4.3%
normalised response (CAL-85-1 [42]): 6.28%
normalised response (HDQ-P1 [43]): 31%
normalised response (MCF-10A [44]): 61.5%
normalised response (SK-BR-3 [45]): 44.9%
normalised response (BT-474 [46]): 74.6%
normalised response (MFM-223 [47]): 55.4%
normalised response (BT-549 [48]): 18.8%
normalised response (MDA-MB-231 [49]): 65%
normalised response (MDA-MB-468 [50]): 15.3%
normalised response (HCC1937 [51]): 41.1%
normalised response (CAL-120 [52]): 59%
normalised response (Hs578T [53]): 28.2%
normalised response (CAL-148 [54]): 40.9%
normalised response (HCC1599 [1]): 112%
normalised response (MDA-MB-453 [2]): 110%
normalised response (CAL-51 [3]): 121%
normalised response (HCC1143 [4]): 72.7%
normalised response (MDA-MB-436 [5]): 77.6%
normalised response (DU-4475 [6]): 97.5%
normalised response (CAL-85-1 [7]): 10.6%
normalised response (HDQ-P1 [55]): 100%
normalised response (MCF-10A [56]): 97.1%
normalised response (BT-474 [8]): 98.3%
normalised response (MFM-223 [9]): 48.9%
normalised response (BT-549 [10]): 103%
normalised response (MDA-MB-231 [11]): 92.3%
normalised response (MDA-MB-468 [12]): 113%
normalised response (HCC1937 [13]): 124%
normalised response (CAL-120 [14]): 99.4%
normalised response (Hs578T [15]): 38.3%
normalised response (CAL-148 [16]): 83.4%

FC(F)c1nc2ccccc2n1-c1nc(N2CCOCC2)nc(N2CCOCC2)n1 [ZSTK474] (100 nM)
normalised response (HCC1599 [36]): 98%
normalised response (MDA-MB-453 [37]): 86.8%
normalised response (CAL-51 [38]): 92.6%
normalised response (HCC1143 [39]): 99.9%
normalised response (MDA-MB-436 [40]): 88.5%
normalised response (DU-4475 [41]): 97%
normalised response (CAL-85-1 [42]): 99%
normalised response (HDQ-P1 [43]): 83.4%
normalised response (MCF-10A [44]): 93%
normalised response (SK-BR-3 [45]): 72.9%
normalised response (BT-474 [46]): 85.3%
normalised response (MFM-223 [47]): 97%
normalised response (BT-549 [48]): 80.4%
normalised response (MDA-MB-231 [49]): 91.1%
normalised response (MDA-MB-468 [50]): 96.9%
normalised response (HCC1937 [51]): 87.7%
normalised response (CAL-120 [52]): 101%
normalised response (Hs578T [53]): 92.4%
normalised response (CAL-148 [54]): 94.7%
normalised response (HCC1599 [1]): 101%
normalised response (MDA-MB-453 [2]): 85.6%
normalised response (CAL-51 [3]): 102%
normalised response (HCC1143 [4]): 115%
normalised response (MDA-MB-436 [5]): 101%
normalised response (DU-4475 [6]): 105%
normalised response (CAL-85-1 [7]): 108%
normalised response (HDQ-P1 [55]): 101%
normalised response (MCF-10A [56]): 85%
normalised response (BT-474 [8]): 102%
normalised response (MFM-223 [9]): 102%
normalised response (BT-549 [10]): 111%
normalised response (MDA-MB-231 [11]): 110%
normalised response (MDA-MB-468 [12]): 97.3%
normalised response (HCC1937 [13]): 64.3%
normalised response (CAL-120 [14]): 102%
normalised response (Hs578T [15]): 102%
normalised response (CAL-148 [16]): 100%

COc1cccc2c1C(=O)c1c(O)c3c(c(O)c1C2=O)C[C@@](O)(C(C)=O)C[C@@H]3O[C@H]1C[C@H](N)[C@H](O)[C@H](C)O1 [Daunorubicin] (10 nM)
normalised response (HCC1599 [36]): 99.1%
normalised response (MDA-MB-453 [37]): 110%
normalised response (CAL-51 [38]): 87.2%
normalised response (HCC1143 [39]): 97%
normalised response (MDA-MB-436 [40]): 99.4%
normalised response (DU-4475 [41]): 106%
normalised response (CAL-85-1 [42]): 100%
normalised response (HDQ-P1 [43]): 96.5%
normalised response (MCF-10A [44]): 105%
normalised response (SK-BR-3 [45]): 112%
normalised response (BT-474 [46]): 102%
normalised response (MFM-223 [47]): 105%
normalised response (BT-549 [48]): 103%
normalised response (MDA-MB-231 [49]): 103%
normalised response (MDA-MB-468 [50]): 84.2%
normalised response (HCC1937 [51]): 93.2%
normalised response (CAL-120 [52]): 103%
normalised response (Hs578T [53]): 104%
normalised response (CAL-148 [54]): 99.3%
normalised response (HCC1599 [1]): 98.9%
normalised response (MDA-MB-453 [2]): 107%
normalised response (CAL-51 [3]): 91.5%
normalised response (HCC1143 [4]): 104%
normalised response (MDA-MB-436 [5]): 93.4%
normalised response (DU-4475 [6]): 103%
normalised response (CAL-85-1 [7]): 98.8%
normalised response (HDQ-P1 [55]): 106%
normalised response (MCF-10A [56]): 104%
normalised response (BT-474 [8]): 102%
normalised response (MFM-223 [9]): 105%
normalised response (BT-549 [10]): 104%
normalised response (MDA-MB-231 [11]): 76%
normalised response (MDA-MB-468 [12]): 90.3%
normalised response (HCC1937 [13]): 106%
normalised response (CAL-120 [14]): 102%
normalised response (Hs578T [15]): 111%
normalised response (CAL-148 [16]): 91.5%
